test system: SU-DHL-4 cell line; assay: SU-DHL-4 cell proliferation assay (Cell Titer-Glo viability); assay type: cell-based; conditions: Homo sapiens; cell viability IC50 activity level, DLBCL cell line SU-DHL-4, 120 hours post-treatment; read-out: SU-DHL-4 Act
In short: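 Viability read by ATP luminescence (Cell Titer-Glo) at the start and after 120 h of growth at 37°C in 5% CO2. DLBCL cells were seeded at 500 per well with compound across 0.5 nM–10 μM in 20 points, 0.1% DMSO. A four-parameter sigmoidal fit gave IC50 as 50% of DMSO control.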

Row | Structure (SMILES) | IC50 [µM]
1 | N#Cc1cccc(C2CN(Cc3ccc(CNc4cccc5c4C(=O)N(C4CCC(=O)NC4=O)C5=O)cc3F)C2)c1 (stereo not drawn) [Cpd 120, 3-(1-(4-((2-(2,6-dioxopiperidin-3-yl)-1,3-dioxoisoindolin-4-ylamino)methyl)-2-fluorobenzyl)azetidin-3-yl)benzonitrile] | < 0.2
2 | O=C1CCC(N2C(=O)c3cccc(NCc4ccc(CN5CCN(c6ccc(C(F)(F)F)nc6)CC5)cc4)c3C2=O)C(=O)N1 (stereo not drawn) [Cpd 10, 2-(2,6-dioxopiperidin-3-yl)-4-(4-((4-(6-(trifluoromethyl)pyridin-3-yl)piperazin-1-yl)methyl)benzylamino)isoindoline-1,3-dione] | 0.2 to 0.5
3 | CC1(C)CN(c2ccc(Cl)cc2)CCN1Cc1ccc(CNc2cccc3c2C(=O)N(C2CCC(=O)NC2=O)C3=O)cc1 (stereo not drawn) [Cpd 34, 4-(4-((4-(4-chlorophenyl)-2,2-dimethylpiperazin-1-yl)methyl)benzylamino)-2-(2,6-dioxopiperidin-3-yl)isoindoline-1,3-dione] | 0.751 to 1
4 | NC(=O)c1ccc(N2CCN(Cc3ccc(CNc4cccc5c4C(=O)N(C4CCC(=O)NC4=O)C5=O)c(F)c3)CC2)nc1 (stereo not drawn) [Cpd 149, 6-(4-(4-((2-(2,6-dioxopiperidin-3-yl)-1,3-dioxoisoindolin-4-ylamino)methyl)-3-fluorobenzyl)piperazin-1-yl)nicotinamide] | < 0.2
5 | O=C1CCC(N2C(=O)c3cccc(NCc4ccc(CN5CCN(c6ccc(Cl)cc6Cl)CC5)cc4)c3C2=O)C(=O)N1 (stereo not drawn) [Cpd 4, 4-(4-((4-(2,4-dichlorophenyl)piperazin-1-yl)methyl)benzylamino)-2-(2,6-dioxopiperidin-3-yl)isoindoline-1,3-dione] | 0.501 to 0.75
6 | CCS(=O)(=O)N1CCN(Cc2ccc(CNc3cccc4c3C(=O)N(C3CCC(=O)NC3=O)C4=O)cc2F)CC1 (stereo not drawn) [Cpd 161, 2-(2,6-dioxopiperidin-3-yl)-4-(4-((4-(ethylsulfonyl)piperazin-1-yl)methyl)-3-fluorobenzylamino)isoindoline-1,3-dione] | < 0.2
7 | O=C1CCC(N2C(=O)c3cccc(NCc4ccc(CN5CC(N6C7CCC6COC7)C5)cc4)c3C2=O)C(=O)N1 (stereo not drawn) [Cpd 248, 4-(4-((3-(3-oxa-8-azabicyclo[3.2.1]octan-8-yl)azetidin-1-yl)methyl)benzylamino)-2-(2,6-dioxopiperidin-3-yl)isoindoline-1,3-dione] | < 0.2
8 | Cc1cc(CNc2cccc3c2C(=O)N(C2CCC(=O)NC2=O)C3=O)ccc1CN1CC(N2CCOCC2)C1 (stereo not drawn) [Cpd 201, 2-(2,6-dioxopiperidin-3-yl)-4-(3-methyl-4-((3-morpholinoazetidin-1-yl)methyl)benzylamino)isoindoline-1,3-dione] | < 0.2
9 | O=C1CCC(N2C(=O)c3cccc(NCc4ccc(CN5CCC(F)(c6ccccn6)CC5)cc4)c3C2=O)C(=O)N1 (stereo not drawn) [Cpd 19, 2-(2,6-dioxopiperidin-3-yl)-4-(4-((4-fluoro-4-(pyridin-2-yl)piperidin-1-yl)methyl)benzylamino)isoindoline-1,3-dione] | 0.501 to 0.75
10 | O=C1CCC(N2C(=O)c3cccc(NCc4ccc(CN5CCN(c6ccc(Cl)cc6)CC5)cc4)c3C2=O)C(=O)N1 (stereo not drawn) [Cpd 3, 4-(4-((4-(4-chlorophenyl)piperazin-1-yl)metthyl)benzylamino)-2-(2,6-dioxopiperidin-3-yl)isoindoline-1,3-dione] | 0.2 to 0.5
11 | N#Cc1ccc(C2CN(Cc3ccc(CNc4cccc5c4C(=O)N(C4CCC(=O)NC4=O)C5=O)cc3F)C2)cc1 (stereo not drawn) [Cpd 102, 4-(1-(4-((2-(2,6-dioxopiperidin-3-yl)-1,3-dioxoisoindolin-4-ylamino)methyl)-2-fluorobenzyl)azetidin-3-yl)benzonitrile] | < 0.2
12 | Cc1cc(CNc2cccc3c2C(=O)N(C2CCC(=O)NC2=O)C3=O)ccc1CN1CCC2(CC1)CC2 (stereo not drawn) [Cpd 44, 4-(4-(6-azaspiro[2.5]octan-6-ylmethyl)-3-methylbenzylamino)-2-(2,6-dioxopiperidin-3-yl)isoindoline-1,3-dione] | < 0.2

Reference: patent publication US11358952B2, “Substituted 4-aminoisoindoline-1,3-dione compounds, compositions thereof, and methods of treatment therewith” (Celgene Corporation, priority 2018, dated 2022)
